Assay [1] has as its target T1, Vascular endothelial growth factor receptor 2 (Homo sapiens, UniProt P35968).
In assay [2] the target is T1, Vascular endothelial growth factor receptor 2. The source holds these as a separate data set.
Assay [3] shares this target. The source holds these as a separate data set.
Description: Inhibition of human N-terminal His-tagged non-phosphorylated VEGFR2 assessed as dissociation half life after 60 mins by ligand displacement based enzyme-inhibitor dilution assay
Assay [4] shares this target. The source holds these as a separate data set.
Description: Inhibition of human N-terminal His-tagged phosphorylated VEGFR2 assessed as dissociation half life after 60 mins by ligand displacement based enzyme-inhibitor dilution assay
For assay [5] the target is unchanged. The source holds these as a separate data set.
Description: Binding affinity to human N-terminal His-tagged non-phosphorylated VEGFR2 assessed as association constant by surface plasmon resonance analysis
For assay [6] the target is unchanged. Description: Binding affinity to human N-terminal His-tagged non-phosphorylated VEGFR2 assessed as dissociation rate constant by surface plasmon resonance analysis. For orientation: Surface plasmon resonance follows binding to a sensor surface in real time, without labels.
For assay [7] the target is unchanged. The source holds these as a separate data set.
Description: Inhibition of human N-terminal His-tagged non-phosphorylated VEGFR2 assessed as dissociation half life
The target is the same in assay [8]. In words: Inhibition of human N-terminal His-tagged phosphorylated VEGFR2 in presence of ATP measured without preincubation by AlphaScreen analysis. (Alpha assays give light when donor and acceptor beads are brought close together.)
The target is the same in assay [9]. In words: Binding affinity to human N-terminal His-tagged non-phosphorylated VEGFR2 by surface plasmon resonance analysis.
The target is the same in assay [10]. Description: Inhibition of human N-terminal His-tagged phosphorylated VEGFR2 preincubated for 120 mins in presence of ATP by AlphaScreen analysis.
Assay [11] shares this target. Description: Inhibition of human N-terminal His-tagged non-phosphorylated VEGFR2 after 60 mins by activity based 100 fold dilution assay.
For assay [12] the target is unchanged. In words: Inhibition of human N-terminal His-tagged non-phosphorylated VEGFR2 in presence of ATP measured without preincubation by AlphaScreen analysis.
The target is the same in assay [13]. Description: Inhibition of human N-terminal His-tagged non-phosphorylated VEGFR2 after 60 mins by ligand displacement based enzyme-inhibitor dilution assay.
Assay [14] has the same target. In words: Inhibition of human N-terminal His-tagged non-phosphorylated VEGFR2 preincubated for 120 mins in presence of ATP by AlphaScreen analysis.
For assay [15] the target is unchanged. Description: Inhibition of human N-terminal His-tagged non-phosphorylated VEGFR2 after 10 mins by Global fit analysis.

T1 sequence (P35968 whole entry): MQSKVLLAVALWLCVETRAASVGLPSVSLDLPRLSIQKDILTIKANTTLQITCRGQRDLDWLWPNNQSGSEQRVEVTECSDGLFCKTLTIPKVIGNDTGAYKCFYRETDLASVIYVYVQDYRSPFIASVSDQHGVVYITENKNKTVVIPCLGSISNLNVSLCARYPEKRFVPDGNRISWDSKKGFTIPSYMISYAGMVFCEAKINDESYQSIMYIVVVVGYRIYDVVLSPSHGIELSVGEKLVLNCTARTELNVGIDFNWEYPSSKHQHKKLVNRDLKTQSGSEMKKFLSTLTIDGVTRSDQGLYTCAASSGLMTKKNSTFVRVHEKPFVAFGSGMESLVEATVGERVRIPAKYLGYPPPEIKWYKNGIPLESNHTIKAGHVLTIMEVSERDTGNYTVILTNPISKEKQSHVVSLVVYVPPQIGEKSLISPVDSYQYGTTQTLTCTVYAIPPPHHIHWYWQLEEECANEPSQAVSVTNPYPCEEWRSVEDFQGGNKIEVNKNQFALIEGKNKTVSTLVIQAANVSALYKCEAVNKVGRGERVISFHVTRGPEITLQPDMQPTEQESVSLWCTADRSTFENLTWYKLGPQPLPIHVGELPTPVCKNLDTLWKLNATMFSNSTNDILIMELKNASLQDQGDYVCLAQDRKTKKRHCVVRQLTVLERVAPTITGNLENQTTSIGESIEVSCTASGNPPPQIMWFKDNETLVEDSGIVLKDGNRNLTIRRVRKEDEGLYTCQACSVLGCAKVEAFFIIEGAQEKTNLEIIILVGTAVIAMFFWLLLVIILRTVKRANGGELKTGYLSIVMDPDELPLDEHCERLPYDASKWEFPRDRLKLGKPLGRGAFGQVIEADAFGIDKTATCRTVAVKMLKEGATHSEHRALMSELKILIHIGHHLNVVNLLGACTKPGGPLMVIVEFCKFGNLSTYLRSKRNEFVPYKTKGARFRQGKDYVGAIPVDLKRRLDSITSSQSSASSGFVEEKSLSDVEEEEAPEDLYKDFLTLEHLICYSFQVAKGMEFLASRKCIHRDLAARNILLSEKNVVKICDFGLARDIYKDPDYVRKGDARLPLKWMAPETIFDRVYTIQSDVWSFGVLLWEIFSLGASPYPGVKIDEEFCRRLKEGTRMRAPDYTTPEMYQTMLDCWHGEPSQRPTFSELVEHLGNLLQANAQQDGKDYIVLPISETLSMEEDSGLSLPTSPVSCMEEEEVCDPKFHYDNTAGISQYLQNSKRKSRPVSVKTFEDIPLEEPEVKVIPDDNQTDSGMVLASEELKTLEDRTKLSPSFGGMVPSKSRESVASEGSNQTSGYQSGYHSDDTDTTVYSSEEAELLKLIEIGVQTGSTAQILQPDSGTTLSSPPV

Turning to `CN[C@@H]1C[C@H]2O[C@@](C)([C@@H]1OC)n1c3ccccc3c3c4c(c5c6ccccc6n2c5c31)C(=O)NC4`, the T1/2 in assay [1], in assay [2], in assay [3] and in assay [4] was below 5 min throughout.
`Cn1ccc2ncnc(Oc3ccc(NC(=O)Nc4cccc(C(F)(F)F)c4)c(F)c3)c21` registered a Ka in assay [5] of 1.6 ×10⁵ /M/s. In addition, the T1/2 in [1] is 260 min; in assay [2], below 5 min; in assay [7], 1.3 min; in assay [3] it was 130 min; in assay [4], below 5 min. In addition, the koff (usually a measure of how fast the partners let go of each other) in [6] amounted to 0.0031 s⁻¹. Also, the IC50 (in general, the concentration at which inhibition is half-maximal) amounted to 46 nM in [8], 14 nM in [10], 4.7 nM in assay [12] and 0.033 nM in assay [14]. The Ki – broadly, the equilibrium dissociation constant of an inhibitor or competing ligand from its target – in [8] stood at 23 nM; in [11], 0.024 nM; in assay [13] it was 0.044 nM; in assay [15] it was 4.6 nM. The affinity in assay [9], expressed as Kd, was 19 nM.

Values taken from ChEMBL document CHEMBL1817643, “Biochemical characterization of a novel type-II VEGFR2 kinase inhibitor: comparison of binding to non-phosphorylated and phosphorylated VEGFR2” (Bioorg Med Chem, 2011).
